Source: US11731943B2, “Therapeutic compounds, compositions and methods of use thereof” (priority 2016, dated 2023)

Tests used:
[1] = tested on: JAK1-dependent STAT6 phosphorylation downstream of IL-13 stimulation in BEAS-2B human bronchial epithelial cells; assay: JAK1 pathway assay in BEAS-2B cells (IL-13-pSTAT6, MSD); type: cell-based; details: Homo sapiens, BEAS-2B, BEAS-2B cells, IL-13 stimulation; read-out: IL-13 p-STAT6 BEAS-2B IC50
[2] = biological target: isolated recombinant JAK2 kinase domain (Homo sapiens (Human), UniProt O60674); assay: JAK2 enzyme assay (Caliper LabChip, Ki); type: biochemical
Summary of the method: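 Caliper LabChip readout of phosphorylated product as a fraction of total substrate, a fluorescently N-terminally labelled JAK3-derived peptide. Isolated human JAK kinase domains were incubated 30 min at 22 °C before EDTA quench (50 mM final).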

[3] = biological target: isolated recombinant JAK1 kinase domain (Homo sapiens (Human), UniProt P23458); assay: JAK1 enzyme assay (Caliper LabChip, Ki); type: biochemical; details: read-out: JAK1 Ki
Summary of the method: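 Ki derived via Morrison tight-binding model, ATP-competitive correction applied. Read-out: product/total ratio of a 5-carboxyfluorescein-tagged JAK3 peptide separated on Caliper LabChip after phosphorylation by isolated human JAK1 kinase domain (22 °C, 30 min; EDTA quench, 50 mM final).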

Sequence of isolated recombinant JAK1 kinase domain (P23458 875-1153): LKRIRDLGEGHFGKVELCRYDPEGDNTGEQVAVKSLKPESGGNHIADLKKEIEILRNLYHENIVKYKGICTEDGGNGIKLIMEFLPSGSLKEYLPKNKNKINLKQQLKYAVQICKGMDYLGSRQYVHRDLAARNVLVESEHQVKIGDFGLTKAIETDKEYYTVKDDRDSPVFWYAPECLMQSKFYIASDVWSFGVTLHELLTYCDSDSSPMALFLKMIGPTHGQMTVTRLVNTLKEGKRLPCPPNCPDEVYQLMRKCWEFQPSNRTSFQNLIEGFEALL
Sequence of isolated recombinant JAK2 kinase domain (O60674 849-1124): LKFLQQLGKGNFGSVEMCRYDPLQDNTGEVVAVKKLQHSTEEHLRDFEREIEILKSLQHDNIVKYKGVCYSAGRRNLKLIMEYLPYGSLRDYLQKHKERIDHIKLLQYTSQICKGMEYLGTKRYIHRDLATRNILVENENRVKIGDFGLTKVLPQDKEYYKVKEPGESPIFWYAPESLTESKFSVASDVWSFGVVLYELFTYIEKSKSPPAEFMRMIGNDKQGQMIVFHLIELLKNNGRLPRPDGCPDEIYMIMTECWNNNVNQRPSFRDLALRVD

| Structure (SMILES) | IC50 [1] | Ki [2] | Ki [3] |
| --- | --- | --- | --- |
| COC(=O)Nc1nn(C2(CC#N)CCN(Cc3ccc(C4=CCCCC4)nc3F)CC2F)cc1C(N)=O (stereo not drawn) [Example 264, methyl N-[4-carbamoyl-1-[4-(cyanomethyl)-1-[[6-(cyclohexen-1-yl)-2-fluoro-3-pyridyl]methyl]-3-fluoro-4-piperidyl]pyrazol-3-yl]carbamate] | 88 nM | 1.4 nM | 0.79 nM |
| CCc1ccc(C2(F)CN(C3CCC(CC#N)(n4cc(C(N)=O)c(NC(=O)C5CC5)n4)CC3)C2)cc1 (stereo not drawn) [Example 265, 1-[1-(cyanomethyl)-4-[3-(4-ethylphenyl)-3-fluoro-azetidin-1-yl]cyclohexyl]-3-(cyclopropanecarbonylamino) pyrazole-4-carboxamide] | 88 nM | 4.2 nM | 1.1 nM |
| COC(=O)Nc1nn(C2(CC#N)CCC(Nc3ccc(-c4ccco4)cc3)CC2)cc1C(N)=O (stereo not drawn) [Example 266, methyl N-[4-carbamoyl-1-[1-(cyanomethyl)-4-[4-(2-furyl)anilino]cyclohexyl]pyrazol-3-yl]carbamate] | 57 nM | 5 nM | 0.77 nM |
| COC(=O)Nc1nn(C2(CC#N)CCN(Cc3ccc(-n4ncc(C)n4)cc3)CC2F)cc1C(N)=O (stereo not drawn) [Example 267, methyl N-[4-carbamoyl-1-[4-(cyanomethyl)-3-fluoro-1-[[4-(4-methyltriazol-2-yl)phenyl]methyl]-4-piperidyl]pyrazol-3-yl]carbamate] | 51 nM | 0.84 nM | 0.86 nM |
| COC(=O)Nc1nn(C2(CC#N)CCN(Cc3ccc(C4=CCCC4)cc3)CC2F)cc1C(N)=O (stereo not drawn) [Example 268, methyl N-[4-carbamoyl-1-[4-(cyanomethyl)-1-[[4-(cyclopenten-1-yl)phenyl]methyl]-3-fluoro-4-piperidyl]pyrazol-3-yl]carbamate] | 43 nM | 1.9 nM | 0.9 nM |
| COC(=O)Nc1nn(C2(CC#N)CCN(Cc3ccc(C4=CCCC4)c(O)c3)CC2F)cc1C(N)=O (stereo not drawn) [Example 269, methyl N-[4-carbamoyl-1-[4-(cyanomethyl)-1-[[4-(cyclopenten-1-yl)-3-hydroxy-phenyl]methyl]-3-fluoro-4-piperidyl]pyrazol-3-yl]carbamate] | 35 nM | 0.55 nM | 0.6 nM |
| C#Cc1ccc(CN2CCC(CC#N)(n3cc(C(N)=O)c(NC(=O)OC)n3)C(F)C2)cc1 (stereo not drawn) [Example 270, methyl N-[4-carbamoyl-1-[4-(cyanomethyl)-1-[(4-ethynylphenyl)methyl]-3-fluoro-4-piperidyl]pyrazol-3-yl]carbamate] | 21 nM | 0.9 nM | 0.41 nM |
| N#CCC1(n2cc(C(N)=O)c(NC(=O)C3CC3)n2)CCN(Cc2ccc(C3CCCCC3)cc2)CC1F (stereo not drawn) [Example 271, 1-[4-(cyanomethyl)-1-[(4-cyclohexylphenyl)methyl]-3-fluoro-4-piperidyl]-3-(cyclopropanecarbonylamino) pyrazole-4-carboxamide] | 83 nM | 15 nM | 2.6 nM |
| COC(=O)Nc1nn(C2(CC#N)CCN(Cc3ccc(C4=CCCC4)nc3F)CC2F)cc1C(N)=O (stereo not drawn) [Example 272, methyl N-[4-carbamoyl-1-[4-(cyanomethyl)-1-[[6-(cyclopenten-1-yl)-2-fluoro-3-pyridyl]methyl]-3-fluoro-4-piperidyl]pyrazol-3-yl]carbamate] | 67 nM | 1.6 nM | 0.68 nM |
| COC(=O)Nc1nn(C2(CC#N)CCN(Cc3cc(O)ccc3Cl)CC2F)cc1C(N)=O (stereo not drawn) [Example 273, methyl N-[4-carbamoyl-1-[1-[(2-chloro-5-hydroxy-phenyl)methyl]-4-(cyanomethyl)-3-fluoro-4-piperidyl]pyrazol-3-yl]carbamate] | 75 nM | 0.31 nM | 0.33 nM |
| C=C(C)c1cc(F)c(CN2CCC(CC#N)(n3cc(C(N)=O)c(NC(=O)OC)n3)C(F)C2)cc1O (stereo not drawn) [Example 274, methyl N-[4-carbamoyl-1-[4-(cyanomethyl)-3-fluoro-1-[(2-fluoro-5-hydroxy-4-isopropenyl-phenyl)methyl]-4-piperidyl]pyrazol-3-yl]carbamate] | 38 nM | 0.61 nM | 0.58 nM |
| N#CCC1(n2cc(C(N)=O)c(NC(=O)C3CC3)n2)CCC(Nc2ccc(C3=CCCC3)cc2)CC1 (stereo not drawn) [Example 275, 1-[1-(cyanomethyl)-4-[4-(cyclopenten-1-yl)anilino]cyclohexyl]-3-(cyclopropanecarbonylamino) pyrazole-4-carboxamide] | 52 nM | 8.1 nM | 1.1 nM |
| N#CCC1(n2cc(C(N)=O)c(NC(=O)C3CC3)n2)CCC(Nc2ccc(-c3ccco3)cc2)CC1 (stereo not drawn) [Example 276, 1-[1-(cyanomethyl)-4-[4-(2-furyl)anilino]cyclohexyl]-3-(cyclopropanecarbonylamino) pyrazole-4-carboxamide] | 9 nM | 2.2 nM | 0.25 nM |
| N#CCC1(n2cc(C(N)=O)c(NC(=O)C3CC3)n2)CCN(Cc2ccc(-n3nccn3)c(O)c2)CC1 [Example 277, 1-[4-(cyanomethyl)-1-[[3-hydroxy-4-(triazol-2-yl)phenyl]methyl]-4-piperidyl]-3-(cyclopropanecarbonylamino) pyrazole-4-carboxamide] | 40 nM | 1.9 nM | 0.74 nM |
| COC(=O)Nc1nn(C2(CC#N)CCN(Cc3ccc(-c4ncco4)cc3)CC2F)cc1C(N)=O (stereo not drawn) [Example 278, methyl N-[4-carbamoyl-1-[4-(cyanomethyl)-3-fluoro-1-[(4-oxazol-2-ylphenyl)methyl]-4-piperidyl]pyrazol-3-yl]carbamate] | 45 nM | 1.3 nM | 1.1 nM |
| C#Cc1ccc(NC2CCC(CC#N)(n3cc(C(N)=O)c(NC(=O)C4CC4)n3)CC2)cc1 (stereo not drawn) [Example 279, 1-[1-(cyanomethyl)-4-(4-ethynylanilino)cyclohexyl]-3-(cyclopropanecarbonylamino) pyrazole-4-carboxamide] | 92 nM | 14 nM | 1.2 nM |
| C#Cc1ccc(CN2CCC(CC#N)(n3cc(C(N)=O)c(NC(=O)C4CC4)n3)C(F)C2)c(Cl)c1 (stereo not drawn) [Example 280, 1-[1-[(2-chloro-4-ethynyl-phenyl)methyl]-4-(cyanomethyl)-3-fluoro-4-piperidyl]-3-(cyclopropanecarbonylamino) pyrazole-4-carboxamide] | 16 nM | 0.4 nM | 0.3 nM |
| COC(=O)Nc1nn(C2(CC#N)CCN(Cc3ccc(C4CC4)cc3)CC2F)cc1C(N)=O (stereo not drawn) [Example 281, methyl N-[4-carbamoyl-1-[4-(cyanomethyl)-1-[(4-cyclopropylphenyl)methyl]-3-fluoro-4-piperidyl]pyrazol-3-yl]carbamate] | 36 nM | 2.2 nM | 1.1 nM |
| N#CCC1(n2cc(C(N)=O)c(NC(=O)C3CC3)n2)CCC(Nc2ccccc2)CC1 (stereo not drawn) [Example 282, 1-[4-anilino-1-(cyanomethyl)cyclohexyl]-3-(cyclopropanecarbonylamino) pyrazole-4-carboxamide] | 48 nM | 9.6 nM | 0.62 nM |
| COC(=O)Nc1nn(C2(CC#N)CCN(Cc3cc(C(F)F)ccc3F)CC2F)cc1C(N)=O (stereo not drawn) [Example 283, methyl N-[4-carbamoyl-1-[4-(cyanomethyl)-1-[[5-(difluoromethyl)-2-fluoro-phenyl]methyl]-3-fluoro-4-piperidyl]pyrazol-3-yl]carbamate] | 77 nM | 2.9 nM | 1.4 nM |
| C=Cc1ccc(CN2CCC(CC#N)(n3cc(C(N)=O)c(NC(=O)OC)n3)C(F)C2)cc1O (stereo not drawn) [Example 284, methyl N-[4-carbamoyl-1-[4-(cyanomethyl)-3-fluoro-1-[(3-hydroxy-4-vinyl-phenyl)methyl]-4-piperidyl]pyrazol-3-yl]carbamate] | 48 nM | 0.5 nM | 0.3 nM |
| C=Cc1cc(F)c(CN2CCC(CC#N)(n3cc(C(N)=O)c(NC(=O)OC)n3)C(F)C2)cc1O (stereo not drawn) [Example 285, methyl N-[4-carbamoyl-1-[4-(cyanomethyl)-3-fluoro-1-[(2-fluoro-5-hydroxy-4-vinyl-phenyl)methyl]-4-piperidyl]pyrazol-3-yl]carbamate] | 22 nM | 0.23 nM | 0.19 nM |
| N#CCC1(n2cc(C(N)=O)c(NC(=O)C3CC3)n2)CCN(Cc2ccc(-n3nccn3)c(O)c2)CC1F (stereo not drawn) [Example 286, 1-[4-(cyanomethyl)-3-fluoro-1-[[3-hydroxy-4-(triazol-2-yl)phenyl]methyl]-4-piperidyl]-3-(cyclopropanecarbonylamino) pyrazole-4-carboxamide] | 52 nM | 0.4 nM | 0.43 nM |
| COC(=O)Nc1nn(C2(CC#N)CCN(Cc3ccc(-n4nccn4)c(O)c3)CC2F)cc1C(N)=O (stereo not drawn) [Example 287, methyl N-[4-carbamoyl-1-[4-(cyanomethyl)-3-fluoro-1-[[3-hydroxy-4-(triazol-2-yl)phenyl]methyl]-4-piperidyl]pyrazol-3-yl]carbamate] | 32 nM | 0.43 nM | 0.35 nM |
| N#CCC1(n2cc(C(N)=O)c(NC(=O)C3CC3)n2)CCC(Nc2ccc(-n3nccn3)cc2)CC1 (stereo not drawn) [Example 288, 1-[1-(cyanomethyl)-4-[4-(triazol-2-yl)anilino]cyclohexyl]-3-(cyclopropanecarbonylamino) pyrazole-4-carboxamide] | 41 nM | 4.4 nM | 0.28 nM |
